Laboratory results published in patent US20260240819A1, “KAT6 INHIBITOR METHODS AND COMBINATIONS FOR CANCER TREATMENT” (Pfizer Inc., priority 2020, published 2026).
pIC50: −log10 of the molar value. Where “and” joins values, the source holds several entries; their conditions need not be identical. Equal entries are not always repeated.

Columns and labels:
[1] = tested on: MCF7 cells; assay: Palbociclib recovery colony formation assay (SRB stain); type: cell-based; conditions: Homo sapiens, read-out: Concentration giving 50% inhibition of recovery; MCF7, with 500 nM palbociclib 14 days, then 10 days recovery
Protocol: (§1) T47D, ZR-75-1, or MCF7 cells were seeded into 6-well tissue culture plates at 10% seeding confluence (100,000-150,000 cells per well). After allowing 18-24 hours for the cells to attach to the wells, growth media was aspirated and discarded and new growth media containing 0-20 μM of either COMPOUND A or COMPOUND B was added in 2-fold increments of descending concentration from 20 μM to the cells (proliferation assay). In parallel, seeded cultures with the same titration of the KAT6 inhibitors was added to the cells. 500 nM palbociclib was also added for each concentration of the KAT6 inhibitors (palbociclib recovery assay). The cultures were incubated 12-14 days and treated with these inhibitors/inhibitor combinations. Growth media containing the inhibitors was replaced on the cell cultures every 3-4 days (twice per week).
(§2) The MCF7 cells were tested with COMPOUND A. For the single agent treated MCF7 cultures, the vehicle treated cultures were >90% confluent after 10 days of treatment. These cultures were SRB stained, scanned, and destained/measured as described above. […] After 10 days of recovery, the MCF7 cultures that had been treated with single agent 500 nM palbociclib were >90% confluent and these palbociclib recovery assay cultures were SRB stained, scanned, and destained/measured as described above.

[2] = tested on: MCF7 cells; assay: Proliferation colony formation assay (SRB stain); type: cell-based; conditions: Homo sapiens, 240 h, read-out: Concentration giving 50% inhibition of proliferation; MCF7, single agent, 10 days
Protocol: as §1, §2

[3] = tested on: T47D cells; assay: Proliferation colony formation assay (SRB stain); type: cell-based; conditions: Homo sapiens, 288 h, single agent, 12 days, read-out: Concentration giving 50% proliferation inhibition
Protocol: as §1
For the KAT6 inhibitor treated T47D cultures (proliferation assay), after 12 days the vehicle (DMSO) treated cultures were >90% confluent and the cell cultures were SRB stained as described in Example 3. The stained 6-well plates were scanned using an Epson Perfection V600 Photo Scanner and Epson Scan version 3.9.2.0 software. To quantitate SRB staining in each 6-well culture, the cultures were destained with 2 mL 10 mM Tris pH 7.5 per well and the absorbance at 565 nm (O.D. 565) of the released stain was measured using a SpectraMax Plus plate reader and SoftMaxPro 5.4.3 software. Inhibition of T47D cell proliferation by both COMPOUND A and COMPOUND B were equivalent with 50% proliferation inhibition observed with 10 μM of the KAT6 inhibitors (FIGS. 8A and 8C).
Cells were plated at low density into 6-well culture dishes and allowed to attach overnight at 37° C., 5% CO2. The next day, in parallel to the proliferation set, palbociclib was added at a final concentration of […] to another set of plates, which served as the set for palbociclib recovery. To both proliferation and palbociclib recovery plates, DMSO or KAT6 inhibitor was added into each well at increasing doses. Medium and KAT6 inhibitor were refreshed twice a week. Cells were cultured for about two weeks of drug treatment until the DMSO-treated wells reached confluency. At the end of treatment, cells were washed once with phosphate-buffered saline and were fixed and stained with SRB for visualization followed by quantification. […] Wells were fixed and stained with SRB for visualization followed by quantification. To quantify the stain, stained cells were dissolved in 2 mL of 10 mM Tris-HCl, pH 7.5 and shaken for 10 min on a shaker. Samples were then diluted with 10 mM Tris-HCl, pH 7.5, transferred to a 96-well microtiter plate in a volume of 100 μL and read on SpetraMax at 565 nm.

[4] = tested on: ZR-75-1 cells; assay: Proliferation colony formation assay (SRB stain); type: cell-based; conditions: Homo sapiens, 288 h, read-out: Concentration giving 50% inhibition of proliferation; ZR-75-1, single agent, 12 days
Protocol: as §1
(§3) For the ZR-75-1 and MCF7 experiments, only COMPOUND A was tested. For the single agent treated ZR-75-1 cultures the vehicle treated cultures were >90% confluent after 12 days of treatment. These cultures were SRB stained, scanned, and destained/measured as described above. […] After 22 days of recovery, the ZR-75-1 cultures that had been treated with single agent 500 nM palbociclib were >90% confluent and these palbociclib recovery assay cultures were SRB stained, scanned, and destained/measured as described above.
Cells were plated at low density into 6-well culture dishes and allowed to attach overnight at 37° C., 5% CO2. […] At the end of treatment, cells were washed once with phosphate-buffered saline and were fixed and stained with SRB for visualization followed by quantification. […] Wells were fixed and stained with SRB for visualization followed by quantification. To quantify the stain, stained cells were dissolved in 2 mL of 10 mM Tris-HCl, pH 7.5 and shaken for 10 min on a shaker. Samples were then diluted with 10 mM Tris-HCl, pH 7.5, transferred to a 96-well microtiter plate in a volume of 100 μL and read on SpetraMax at 565 nm.

[5] = tested on: T47D cells; assay: Palbociclib recovery colony formation assay (SRB stain); type: cell-based; conditions: Homo sapiens, read-out: KAT6 inhibitor concentration giving 50% inhibition of recovery, with 500 nM palbociclib 14 days, then 14 days recovery
Protocol: as §1
For the T47D cultures arrested with 500 nM palbociclib and treated with increasing concentration of the KAT6 inhibitors (palbociclib recovery assay), after 14 days of combination treatment the growth media containing the inhibitors was aspirated from the cultures and discarded. […] After allowing 14 days for the cultures to recover, those that recovered from single agent 500 nM palbociclib arrest were >90% confluent and all the palbociclib recovery cultures were SRB stained, scanned, and destained/measured as described above. […]

[6] = tested on: ESR1 (encoding estrogen receptor alpha (ERα)) expression in T47D cells; assay: GeneChip gene expression analysis; type: cell-based; conditions: 10 μM, 6 days
Protocol: T47D cell lines having either the Tet-ON KAT6A_5, KAT6A_6, or shRenilla shRNAs were treated with 0.2 μg/mL doxycycline to induce expression of the respective shRNA in the T47D cells and initiate knockdown of KAT6A (KAT6A_5 and KAT6A_6 cells only). The cells were treated with doxycycline for 4 days, which provided suffient time for KAT6A protein depletion in the cells. On day 3 of doxycycline treatment, the KAT6A_5, KAT6A_6, and shRenilla T47D cells were suspended and seeded into 6-well tissue cultures plates at 10% confluence. Parental T47D cells (no shRNA) were also seeded into 6-well tissue culture plates at 10% confluence. On day 4 after shRNA induction, half the T47D KAT6A_5, KAT6A_6, and shRenilla cultures were treated with 0.5 μM palbociclib and half the cultures were kept untreated. All cultures were kept in growth media containing 0.2 μg/mL doxycycline to maintain KAT6A knockdown in the cells throughout the experiment. The parental T47D cells were split into four groups as follows: (1) vehicle treated (DMSO), (2) vehicle+0.5 μM palbociclib, (3) 10 μM COMPOUND A treated, and (4) 10 μM COMPOUND A+0.5 μM palbociclib. The parental T47D and T47D-shRNA cell lines were subsequently treated for 6 days and the growth media, containing the inhibitors represented the different growth conditions described above, was replaced once on day 3 of treatment. […]

[7] = tested on: ZR-75-1 cells; assay: Palbociclib recovery colony formation assay (SRB stain); type: cell-based; conditions: Homo sapiens, read-out: Concentration giving 50% inhibition of recovery; ZR-75-1, with 500 nM palbociclib 14 days, then 22 days recovery
Protocol: as §1, §3

[8] = tested on: ER+ breast cancer PDX model ST340; assay: PDX tumor growth inhibition study; type: in vivo, female athymic nude mice; conditions: doses per Table 7; for % TGI Delta: PDX ST340, day 21, compared to Vehicle; for Mean ± SEM (day 21): PDX ST340, tumor volume (mm^3)
Protocol: (§4) Combination studies with palbociclib, fulvestrant and the KAT6 inhibitor, Compound E (KAT6i), were performed in two ER+ breast cancer PDX models: ST340 and ST941. ST340 was wildtype for ESR1. […] Both studies were conducted by XenoSTART (San Antonio, Texas), where 6-12 week-old female athymic nude mice (JAX, stock #007850) were subcutaneously implanted with ~70 mg tumor fragments. Animals were supplemented with exogenous estradiol ad libitum via drinking water throughout the duration of the studies. Tumor measurements and animal weights were captured twice per week, and animals were stratified and enrolled into the study when the mean tumor volume (TV, formula: width^2×length×0.5) reached 150-300 mm^3.
(§5) Each study contained eight treatment groups of n=10 animals per group. The groups were as follows: 1) Vehicle (5% DMSO/40% PEG300/55% 1×PBS), 2) Compound E, 3) palbociclib, 4) fulvestrant, 5) palbociclib+fulvestrant, 6) Compound E +fulvestrant, 7) Compound E+palbociclib, and 8) Compound E+palbociclib+fulvestrant. Animals remained on study and were continued on treatments until the mean tumor volume of each group reached ~1500 mm^3. At that point, the final dose was administered, animals were sacrificed, and terminal samples were collected. Blood microsamples were collected from each group for pharmacokinetics (PK) analysis at 0, 3, and 7 hrs (n=3/timepoint) on day 14 of dosing and again on the terminal day of dosing.
(§6) Analysis of covariance (ANCOVA) was used to determine statistical significance when comparing percent TGI between groups. Changes in bodyweights were calculated in relation to starting bodyweights at study initiation (day 0 of treatment).

[9] = Bodyweight and health monitoring, PDX ST340 study; type: in vivo, female athymic nude mice; conditions: relative to day 0
Protocol: as §4, §5, §6

[10] = Bodyweight and health monitoring, PDX ST941 study; type: in vivo, female athymic nude mice; conditions: relative to day 0
Protocol: as §4, §5, §6

| SMILES | pIC50 [1] | pIC50 [2] | pIC50 [3] | pIC50 [4] | pIC50 [5] | ESR1 expression and downstream ERα regulated genes [6] | pIC50 [7] | % TGI Delta [8] | Mean ± SEM (day 21) [8] | Day 21 mean change in bodyweight [9] | Maximum mean bodyweight loss [9] [%] | Day 17 mean change in bodyweight [10] | Maximum mean bodyweight loss [10] [%] | % TGI Delta ([8]; listed as fulvestrant) |
| --- | --- | --- | --- | --- | --- | --- | --- | --- | --- | --- | --- | --- | --- | --- |
| Cc1cc(-c2ccccc2)cc(C(=O)NNS(=O)(=O)c2ccccc2)c1F [COMPOUND A, N′-(4-fluoro-5-methyl-[1,1′-biphenyl]-3-carbonyl)benzenesulfonohydrazide] | 5.30 | < 4.70 | 5.00 | 6.52 | 5.30 | significant downregulation | 5.60 |  |  |  |  |  |  |  |
| O=C(NNS(=O)(=O)c1ccccc1)c1cc(-c2ccccc2)cc(Cl)c1F [COMPOUND B, N′-(5-chloro-4-fluoro-[1,1′-biphenyl]-3-carbonyl)benzenesulfonohydrazide] |  |  | 5.00 |  | 5.60 |  |  |  |  |  |  |  |  |  |
| COc1ccccc1S(=O)(=O)Nc1noc2cc(Cn3cccn3)cc(OC)c12 [Compound E, 2-methoxy-N-{4-methoxy-6-[(1H-pyrazol-1-yl)methyl]-1,2-benzoxazol-3-yl}benzene-1-sulfonamide] |  |  |  |  |  |  |  | 55% and 55.4% | 882 ± 86 | −2% | −4 | +5% | −4 |  |
| C[C@]12CC[C@@H]3c4ccc(O)cc4C[C@@H](CCCCCCCCC[S+]([O-])CCCC(F)(F)C(F)(F)F)[C@H]3[C@@H]1CC[C@@H]2O (stereo partly shown) [Fulvestrant] |  |  |  |  |  |  |  | 21.3% | 1370 ± 195 | +5% | −2 | 0% | −5 | ~ 20% |
